Data published in patent publication US10196353B2, “Chemical compounds” (GlaxoSmithKline Intellectual Property (No. 2) Limited, priority 2012, dated 2019).

Legend:
[1] = molecular target: androgen receptor (MBP-hAR-LBD, rat androgen ligand binding domain) (Rattus norvegicus (Rat), UniProt P15207); test: Androgen receptor fluorescence polarization assay; conditions: read-out: % Max
Text: • The following abbreviations and sources of materials are used • Fluormone PL Red—a commercially available PR fluoroprobe (Invitrogen, P2964) • Fluormone GS Red—a commercially available GR fluoroprobe (PanVera Corp, Product No P2894) • Fluormone AL Red—a commercially available AR fluoroprobe (Invitrogen, PV4294,) • MBP-hPR-LBD—maltose binding protein Purified human progesterone ligand binding domain (made in house) • GR—purified human glucocorticoid receptor (PanVera Corp, Product No P2812) • MBP-hAR-LBD—maltose binding protein Purified rat androgen ligand binding domain (made in house) • PR Screening Buffer—100 mM potassium phosphate (pH 7.4), 100 μG/ml bovine gamma globulin, 15% ethylene glycol, 10% glycerol with 2 mM CHAPS, 1 mM DTT added fresh and 4% DMSO added fresh (final of 5% DMSO in assay with 1% concentration coming from compound dispense) • AR Screening Buffer—50 mM Tris pH 7.5, 100 mM Ammonium Sulfate, 20% glycerol, 3% xylitol with 5 mM Chaps, 2 mM DTT added fresh and 4% DMSO added fresh (final of 5% DMSO in assay with 1% concentration coming from compound dispense) • GR Screening Buffer—100 mM potassium phosphate (pH 7.4), 200 mM Na2MoO2, 1 mM EDTA, 20% DMSO (PanVera Corp Product No P2814) with GR stabilizing peptide (100 μM) (PanVera Corp Product No P2815) • DTT—dithiothreitol (PanVera Corp Product No P2325) • Discovery Analyst—is an FP reader • DMSO—dimethylsulphoxide Progesterone Receptor Fluorescence Polarization Assay:
The androgen receptor fluorescence polarization assay is used to investigate the interaction of the compounds with the androgen receptor.
Compounds are added to the 384 well black low-volume plates to a final volume of 0.1 μL. DTT and DMSO are added to the chilled assay buffer just before beginning assay. Sufficient Fluormone AL Red and AR-LBD are defrosted on ice and added to the chilled buffer in a glass tube to give a final concentration of 1 nM and 100 nM, (for current batch) respectively. A volume of 10 μL of the assay mix is added to compound plates with a multidrop. […] The plates are counted in a Discovery Analyst with suitable 535 nm excitation and 590 nm emission interference filters (Dichroic 561 nM). […] Test compounds are dissolved and diluted in DMSO. Compounds are assayed in singlicate, a four parameter curve fit of the following form being applied
[formula] where a is the minimum, b is the Hill slope, c is the IC50 and d is the maximum.
Data is presented as the mean pIC50 with the standard error of the mean of n experiments.

[2] = test system: castrated male Sprague-Dawley rats; test: Castrated male rat model (ORX rat); type: in vivo; conditions: for prostate sparing: defined as at least a 2:1 ratio of levator ani ED50 to prostate ED50; for levator ani hypertrophy: favorable = 30% or greater increase in levator ani weight vs vehicle-treated castrates, dosed orally at up to 10 mg/kg/day
Text: The activity of the compounds of the present invention as modulators of the androgen receptor was investigated using a castrated male rat model (ORX) as described in C. D. Kockakian, Pharmac. Therap. B1(2), 149-177 (1975); C. Tobin and Y. Joubert, Developmental Biology 146, 131-138 (1991); J. Antonio, J. D. Wilson and F. W. George, J Appl. Physiol. 87(6) 2016-2019 (1999)) the disclosures of which herein are included by reference.
Androgens have been identified as playing important roles in the maintenance and growth of many tissues in both animals and humans. Muscles, like the levator ani and bulbocavernosus, and sexual accessory organs, such as the prostate glands and seminal vesicles have high expression levels of the androgen receptor and are known to respond quickly to exogenous androgen addition or androgen deprivation through testicular ablation. Castration produces dramatic atrophy of muscle and sexual accessory organs; whereas the administration of exogenous androgens to the castrated animal results in effective hypertrophy of these muscles and sexual accessory organs. Although the levator ani muscle, also known as the dorsal bulbocavernosus, is not ‘true skeletal muscle’ and definitely sex-linked, it is reasonable to use this muscle to screen muscle anabolic activities of test compounds because of its androgen responsiveness and simplicity of removal.
Male Sprague-Dawley rats weighing 160-180 grams were used in the assay. The rats were singly caged upon receiving and throughout the study. Bilateral orchidectomies were performed in sterilized surgical conditions under isoflurane anesthesia. An anteroposterior incision was made in the scrotum. The testicles were exteriorized and the spermatic artery and vas deferens were ligated with 4.0 silk 0.5 cm proximal to the ligation site. The testicles then were removed by a surgical scissors distal to the ligation sites. The tissue stumps were returned to the scrotum, the scrotum and overlying skin were closed by a surgical stapler. The Sham-ORX rats underwent all procedures except ligation and scissors cutting. The rats were assigned randomly into study groups 7-10 days post surgery based on the body weight.
Dihydrotestosterone (DHT) and the standard SARM, S-22, (J. Pharma. Exper. Thera. Vol 315, p. 230) were used as a positive control (1-10 mg/kg s.c. for DHT and 0.1 to 3 mg/kg p.o. for S-22). Compounds of the current invention were administered subcutaneously or orally for 4-28 days. Alternatively, some compounds of the current invention were administered subcutaneously or orally for 7-49 days. The rats were weighed daily and doses were adjusted accordingly. The general well being of the animal was monitored throughout the course of the study.
At the end of the study, the rats were euthanized in a CO2 chamber. The ventral prostate glands (VP), seminal vesicles (SV), levator ani muscle (LA) and bulbocavernosus (BC) were carefully dissected. The tissues were blotted dry; the weights were recorded, and then saved for histological and molecular analysis. The VP and SV weights serve as androgenic indicators and LA and BC as anabolic indicators. The ratio of anabolic to androgenic activities was used to evaluate the test compounds. Serum luteinizing hormone (LH), follicle stimulating hormone (FSH) and other potential serum markers of anabolic activities were also analyzed.
The compounds shown in Examples 9, 20, 26, 27, 33, 51, 52, and 53 were tested in the castrated male rate model essentially as described above. Test compounds were employed in free or salt form. […] Prostate sparing was defined as at least a 2:1 ratio of levator ani ED50 to prostate ED50. The ED50 is defined as 50% of the maximum response above the vehicle treated castrate level. For shorter term studies (4-7 days), the maximum response is defined as the maximum response from positive control (DHT or standard SARM, S-22) treatment. For the longer term studies (7-49 days), the ED50 is defined as 50% of the eugonadal state. […]

androgen receptor (MBP-hAR-LBD, rat androgen ligand binding domain), sequence (P15207 651-882): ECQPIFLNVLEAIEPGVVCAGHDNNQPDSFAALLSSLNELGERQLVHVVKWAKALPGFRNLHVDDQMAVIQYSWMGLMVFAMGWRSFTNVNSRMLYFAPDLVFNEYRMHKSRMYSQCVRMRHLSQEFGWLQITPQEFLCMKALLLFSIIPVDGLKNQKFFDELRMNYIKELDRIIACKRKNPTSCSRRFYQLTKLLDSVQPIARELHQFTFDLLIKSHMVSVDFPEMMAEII

Row | Compound | Emax [1] [%] | prostate sparing [2] | levator ani hypertrophy [2]
1 | C[C@@H](n1ccc2c(C(F)(F)F)c(C#N)ccc21)C(C)(C)O [Example 22, (R)-1-(3-Hydroxy-3-methylbutan-2-yl)-4-(trifluoromethyl)-1H-indole-5-carbonitrile] | 100 |  | 
2 | CC[C@H](c1cncc(C#N)c1)n1ccc2c(C#N)c(C#N)ccc21 [Example 51, (R)-1-(1-(5-Cyanopyridin-3-yl)propyl)-1H-indole-4,5-dicarbonitrile] |  | spared the prostate | favorable levator ani hypertrophy
3 | CCC(C(=O)OC)n1c(C)cc2c(C(F)(F)F)c(C#N)ccc21 (stereo not shown) [Example 2, Methyl 2-[5-cyano-2-methyl-4-(trifluoromethyl)-1H-indol-1-yl]butanoate] | 72 |  | 
4 | CC(CS(C)(=O)=O)n1ccc2c(C(F)(F)F)c(C#N)ccc21 (stereo not shown) [Example 26, 1-(1-(Methylsulfonyl)propan-2-yl)-4-(trifluoromethyl)-1H-indole-5-carbonitrile] |  | spared the prostate | favorable levator ani hypertrophy
5 | C[C@H](n1ccc2c(Cl)c(C#N)ccc21)C(C)(C)O [Example 32, (S)-4-Chloro-1-(3-hydroxy-3-methylbutan-2-yl)-1H-indole-5-carbonitrile] | 78 |  | 
6 | CCCc1cc2c(C(F)(F)F)c(C#N)ccc2n1CC(C)(C)O [Example 12, 1-(2-Hydroxy-2-methylpropyl)-2-propyl-4-(trifluoromethyl)-1H-indole-5-carbonitrile] | 90 |  | 
7 | Cc1cc2c(C(F)(F)F)c(C#N)ccc2n1C(C)CO (stereo not shown) [Example 7, 1-(1-Hydroxypropan-2-yl)-2-methyl-4-(trifluoromethyl)-1H-indole-5-carbonitrile] | 100 |  | 
8 | C[C@H](CS(C)(=O)=O)n1ccc2c(C(F)(F)F)c(C#N)ccc21 [Example 27, (R)-1-(1-(Methylsulfonyl)propan-2-yl)-4-(trifluoromethyl)-1H-indole-5-carbonitrile] | 91 | spared the prostate | favorable levator ani hypertrophy
9 | Cc1cc2c(C(F)(F)F)c(C#N)ccc2n1C(C)CS(C)(=O)=O (stereo not shown) [Example 9, 2-Methyl-1-(1-(methylsulfonyl)propan-2-yl)-4-(trifluoromethyl)-1H-indole-5-carbonitrile] |  | spared the prostate | favorable levator ani hypertrophy
10 | C[C@@H](n1ccc2c(C(F)(F)F)c(C#N)ccc21)[C@](C)(O)C(F)(F)F [Example 53, 1-((2R,3S)-4,4,4-Trifluoro-3-hydroxy-3-methylbutan-2-yl)-4-(trifluoromethyl)-1H-indole-5-carbonitrile] |  | spared the prostate | favorable levator ani hypertrophy
11 | C[C@@H](n1ccc2c(Cl)c(C#N)ccc21)[C@](C)(O)C(F)(F)F [Example 52, 4-Chloro-1-((2R,3S)-4,4,4-trifluoro-3-hydroxy-3-methylbutan-2-yl)-1H-indole-5-carbonitrile] | 97 | spared the prostate | favorable levator ani hypertrophy
12 | CSCC(C)n1c(C(F)F)cc2c(C#N)c(C#N)ccc21 (stereo not shown) [Example 17, 2-(Difluoromethyl)-1-(1-(methylthio)propan-2-yl)-1H-indole-4,5-dicarbonitrile] | 99 |  | 
13 | CC(C)(O)C(C)(C)n1ccc2c(C#N)c(C#N)ccc21 [Example 43, 1-(3-Hydroxy-2,3-dimethylbutan-2-yl)-1H-indole-4,5-dicarbonitrile] | 105 |  | 
14 | C[C@H](n1ccc2c(C(F)(F)F)c(C#N)ccc21)C(C)(C)O [Example 21, (S)-1-(3-Hydroxy-3-methylbutan-2-yl)-4-(trifluoromethyl)-1H-indole-5-carbonitrile] | 100 |  | 
